Reference: publication PMC3575220, “Inhibition of dengue NS2B-NS3 protease and viral replication in Vero cells by recombinant retrocyclin-1” (BMC Infectious Diseases, 2012)
Where no end group is shown, it is not given here.

Experiments:
dengue NS2B-NS3pro = molecular target: T1, dengue NS2B-NS3pro (Dengue virus type 2, UniProt P29990); assay: Fluorogenic NS2B-NS3pro protease inhibition assay; type: biochemical, DENV-2; conditions: pH 8.5, 200 mM Tris–HCl, 20 μM Boc-Gly-Arg-Arg-AMC, 2 μM enzyme, 30 min pre-incubation, 30 min reaction, fluorescence ex 350/em 440 nm, triplicates, ± SD
T1 construct: 6XHis (pQE30 vector) (N); made in house; host or cells: Escherichia coli XL1-Blue
Experimental: The bioassay used in this study was published by Rothan and co-workers. In brief, endpoint reaction mixtures with total volume of 200 μl were prepared consisted of 20 μM fluorogenic peptide substrate (Boc-Gly-Arg-Arg-AMC), 2 μM of recombinant NS2B-NS3pro, with or without RC-1 of varying concentrations, buffered at pH 8.5 with 200 mM Tris–HCl. The RC-1 was initially prepared in Tris–HCl buffer and assayed at five different concentrations, ranging from 9.3 - 150 μM. Three types of reactions which are buffer, buffer with enzyme and buffer with enzyme and different concentrations of RC-1were incubated at 28°C, 37°C and 40°C for 30 minutes. Subsequently, the substrate was added to each reaction mixture and incubated at same temperatures for another 30 minutes. Measurements were performed in triplicates using Tecan Infinite M200 Pro fluorescence spectrophotometer. Substrate cleavage was normalized against buffer only (control) and optimized at the emission at 440 nm upon excitation at 350 nm. The readings were then used for calculating Km values of peptide substrate and IC50 values of peptide inhibitors using non-linear regression models in GraphPad Prism 5.0 software as previously described.
Figure 4 The inhibition potential of RC-1 against the activity of DENV-2 NS2B-NS3pro. End point protease inhibition assay was carried out to evaluate the inhibitory potential of RC-1 against the protease’s ability to cleave a fluorogenic peptide substrate (Boc-Gly-Arg-Arg-AMC). The reaction mixtures consisted of 20 μM substrate, 2 μM of enzyme, with or without RC-1 of varying concentrations incubated at 28°C, 37°C or 40°C for 30 minutes. The results were normalized with the substrate alone and substrate with protease incubated at same temperatures. […] 2'; read as 1.2

DENV-2 in Vero cells = assay: DENV-2 RNA reduction in infected Vero cells by real-time PCR; type: cell-based; conditions: for reduction in viral replication / reduction in total viral RNA copies: 150 μM RC-1, MOI of 2; for reduction in total viral RNA copies: ± SD
Experimental: Three independent experiments were carried out for pre, simultaneous and post-infection treatments with RC-1 at 24, 48 and 72 hrs of each infection in triplicates. Vero cells were grown in a 24-well tissue culture plate (1 × 10^5 cells/well), incubated 24 hrs under optimal conditions and infected with DENV-2 (MOI of 2). For pre-treatment infection, 150 μM of RC-1 was added to the cells before virus inoculation and incubated for 24 hrs. Afterwards, DENV-2 supernatant was added, followed by incubation for 1 hr with gentle shaking every 10 min for optimal virus to cells contact. The virus supernatant was removed, and the cells were washed twice with fresh serum-free DMEM media to remove residual virus. New complete DMEM media were added and the cultures were incubated for 24, 48 and 72 hrs at 37°C, supplemented with 5% CO2. Same applications were used for simultaneous treatment infection except the peptide was mixed with the virus supernatant and incubated at 37°C for 1 h, and then inoculated onto Vero cells. The post-treatment infection was carried out after inoculation of Vero cells with DENV-2 and the complete DMEM medium was added containing the RC-1. Then, the cultures were incubated for 24, 48 and 72 hrs at 37°C and 5% CO2 with three wells of infected cells in each experiment were kept without RC-1 as controls. Cellular supernatants were collected and stored at −80°C for viral quantification using real time PCR.
For quantification of copy number of DENV-2 RNA, the standard curve was generated by 10-fold serial dilution of known copies of DENV-2 RNA. Viral RNA was extracted from culture supernatant using QIAmp viral RNA mini kit (Qiagen, Germany) according to the manufacturer’s instructions. A fragment located at the 5'UTR region of the virus genome was used to generate the primers. One-step RT-PCR using SyBr Green Master Kit (Qiagen, Germany) was used to conduct absolute quantification using ABI7300 machine from Applied Biosystems (Foster City, CA). The PCR profile was 1 cycle of 50°C for 2 min, 1 cycle of 95°C for 10 min, 40 cycles of 10 sec denaturation at 95°C, 20 sec annealing at 57.7°C with a single fluorescence emission measurement and 30 sec extension at 72°C, followed by 5 min at 72°C for final extension. Dissociation curve analysis was added to the end of each run. Results were analyzed using the company's Sequence Detection Software Version 1.3.
(§1) Figure 5 The percentage of viral reduction in Vero cells after different treatments with RC-1. (A) RC-1 was diluted to various concentrations (37.5, 75, 100, 125, 150 and 175 μM) with DMEM media supplemented with 2 % FBS and added to the cell culture. The viability of cells was analyzed at 24, 48 and 72 hrs using Non-Radioactive Cell Proliferation assay. (B) The cells were grown under the optimal conditions and infected with DENV-2 at the MOI of 2. The MNTD of RC-1 (150 μM) was used to treat infected Vero cells and the results were normalized with infected cells without RC-1 as controls. Pre, simultaneous and post-infection treatments with RC-1 were applied at 24, 48 and 72 hrs of each infection. The percentage of inhibition was the highest for simultaneous treatment compared to pre and post-treatment. (Two way ANOVA was used with Bonferroni post-test, P < 0.0001).

Vero cells = assay: Maximum non-toxic dose test (cell proliferation assay); type: cell-based
Experimental: Vero cells were seeded at 1 × 10^4 cells per well in triplicate in 96 well plates and propagated at optimal conditions (37°C, 5% CO2 in humidified incubator). Recombinant RC-1 was diluted to serial concentrations (37.5, 75, 100, 125, 150 and 175 μM) with DMEM media supplemented with 2% FBS. Each dilution was tested in triplicate. Two control wells were included in each experiment: culture medium without RC-1 and culture medium with different concentrations of the RC-1 in the absence of cells to subtract the background value of RC-1 in the culture medium. The cell cultures were analyzed at 24, 48 and 72 hours using Non-Radioactive Cell Proliferation assay (Promega, USA) according to the manufacturer’s instructions.
as §1

E. coli = assay: Disc diffusion susceptibility test, E. coli; type: cell-based; conditions: 0.1 mg/ml RC-1, Mueller-Hinton agar, clear circular zone
Experimental: (§2) The disc diffusion susceptibility test was used to evaluate antimicrobial activity of the recombinant RC-1. The samples of recombinant RC-1 before and after refolding applications (100 μg/ml) were dropped onto a filter paper discs (0.1 mg/ml) and left to dry at room temperature. Then, the filters paper discs placed on an E. coli-inoculated Mueller-Hinton agar and a Saccharomyces cerevisiae inoculated yeast extract peptone dextrose (YPD) agar plates. Both E. coli and yeast inoculated plates were inoculated for 16 hrs at […] and 30°C, respectively.
(§3) Figure 2 Antimicrobial activity of recombinant RC-1 after refolding. Each sample of RC-1 before and after refolding (0.1 mg/ml) was dropped on filter papers discs and left to dry at room temperature. The dry filter paper discs were placed on E. coli and yeast-inoculated antibiotic-free Mueller-Hinton-gar and YPD-agar plates respectively and incubated overnight at 37°C (E. coli) or 30°C (yeast).

[1] = test system: yeast (Saccharomyces cerevisiae); assay: Disc diffusion susceptibility test, yeast; type: cell-based; conditions: 0.1 mg/ml RC-1, YPD agar, 30°C, clear circular zone
Experimental: as §2, §3

[2] = cited from earlier work
Source text: We conducted this study to evaluate the effect of RC-1, a cationic cyclic peptide on the activity of dengue protease as a target to inhibit replication of dengue virus. The RC-1 was produced inexpensively as a soluble recombinant peptide in E. coli and the tri-disulphide bonds were correctly reformed in alkaline and diluted environment. […] Furthermore, this peptide is able to provide long-lasting prote ...

[3] = up to 500 μg/ml (250 μM); cited from earlier work
Source text: (§4) It has been known that the compound toxicity could hinder the development of drugs against dengue virus.

different cell lines = conditions: up to 500 μg/ml (250 μM); cited from earlier work
Source text: as §4

Sequence: GICRCICGRGICRCICGR (also: bicyclic or more (positions not given here)) [RC-1, retrocyclin-1, disulphide cyclic peptide, theta-defensin analogue, circular, cationic, tri-disulphide bonded (Cys3-Cys16, Cys5-Cys14, Cys7-Cys12)]
- IC50 (dengue NS2B-NS3pro; 28°C): 46.1 ± 1.7 µM
- IC50 (dengue NS2B-NS3pro; 37°C): 21.4 ± 1.6 µM
- IC50 (dengue NS2B-NS3pro; 40°C): 14.1 ± 1.2 µM
- reduction in viral replication (DENV-2 in Vero cells; post-treatment, 48 hrs, triplicates): 30%
- reduction in viral replication (DENV-2 in Vero cells; post-treatment, 72 hrs, triplicates): 45%
- viral replication (in words) (DENV-2 in Vero cells; pre, simultaneous and post infection treatment modes, maximum non-toxic dose): significantly declined
- reduction in viral replication (DENV-2 in Vero cells; pre-treatment (24 hrs before virus), 48 hrs, triplicates): 40%
- reduction in viral replication (DENV-2 in Vero cells; pre-treatment (24 hrs before virus), 72 hrs, triplicates): 38%
- reduction in total viral RNA copies (DENV-2 in Vero cells; simultaneous treatment, 24 hrs, triplicates): 45.5% ± 4.2
- reduction in viral replication (DENV-2 in Vero cells; simultaneous treatment, 72 hrs): 85%
- reduction in total viral RNA copies (DENV-2 in Vero cells; simultaneous treatment, 72 hrs, triplicates): 85% ± 7.1
- cellular morphological abnormalities (Vero cells; Vero cells): no noticeable cellular morphological abnormalities
- cellular toxicity (in words) (Vero cells; Vero cells, 150 μM): low cellular toxicity
- maximum non-toxic dose (MNTD) (Vero cells; all three incubation periods, 24, 48 and 72 hrs, 37.5-175 μM tested, DMEM 2% FBS, triplicate): 150 µM
- antimicrobial activity (E. coli): exhibited antimicrobial activity
- antimicrobial activity [1]: exhibited antimicrobial activity
- fold potency of cyclic RC-1 over the open chain analogue [2]: 3 fold
- haemolytic activity [3]: neither haemolytic activity nor cytotoxicity
- cytotoxicity in different cell lines (different cell lines): neither haemolytic activity nor cytotoxicity
